The record followed here is patent US6733971B2, “Method for identifying an agent that affects a hedgehog signaling pathway” (priority 1998, dated 2004).

Test [1] relates to Ci. Kind of test: Ci induction in cl-8 cells with or without HH-N conditioned medium, Western blot. Type of test: cell-based, Drosophila. On the procedure: cl-8 cells were cultured as described in Van Leeuwen, F., et al. Nature, 368:342-344, 1994. Culture and transfection of S2 cells were performed as described in Porter, J. A. et al. Cell, 86: 21-34, 1996. The conditioned medium was made by culturing transfected S2 cells in cl-8 medium, and induced by adding CUSO4, to the final concentration of 0.5 Mm overnight. The conditioned medium was harvested the next day, centrifuged to remove S2 cells and the supernatant was used. To make lysate from cl-8 cells, cl-8 cells were washed, harvested in cold phosphate buffered saline (PBS), and then resuspended in NP-40 lysis buffer (150 Mm NaCl, 50 Mm Tris pH8, 1% NP-40, 1 Mm EDTA, 20 μg/ml aprotinin, 20 μg/ml leupeptin, 1 μg/ml pepstatin A, 2.5 μg/ml antipain, 100 μM PMSF, 50 mM NaF, 5 mM Na2P4O7). Cells were lysed at 4° C. for 10 minutes, then centrifuged at 13,000×g for 10 minutes. The supernatant was saved for Western blot analysis.
SDS-PAGE and protein transfer were carried out by standard methods. The primary antibodies used were: rat monoclonal anti-Ci 2Al 1:20 dilution; mouse monoclonal anti-Ptc 1:1000 dilution; mouse monoclonal anti-actin 1:2500. Secondary antibodies were from Jackson Immunologicals. The filters were developed using SuperSignal from Pierce.
Tautomycin (TAU) and okadaic acid (OA) were purchased from Calbiochem and dissolved in dimethyl sulfoxide (DMSO) to different concentrations. The phosphatase inhibitors were mixed with conditioned medium and the concentration of DMSO was adjusted to 0.2% for each sample. cl-8 cells were incubated with conditioned medium and phosphatase inhibitor mixture for 4 hours and lysed for analysis.
On the technique in general: Immunoblotting shows a protein as a band on a membrane.

Test [2] relates to HNF3β and Isl-1. Kind of test: SHH induction of HNF3β and Isl-1 in chick embryo neurotube explant. The format is cell-based. An excerpt: Most of the components identified so far in the HH signaling pathway are conserved from Drosophila to vertebrates. The phosphatase activity found in cl-8 cells may also be conserved in vertebrates. Sonic HH (SHH), the vertebrate homolog of HH, induced the floor plate marker hepatocyte nuclear factor 3β (HNF3) and motor neuron marker islet-1 (Is1-1) in the developing neurotube. In chick embryo neurotube explant, exogenously provided SHH induced the expression of HNF3β and Isl-1.

Test [3] deals with PP1 and PP2A enzyme activity. Kind of test: Protein phosphatase assay on nuclear extracts of control and Shh treated P19 cells. The format is biochemical, mouse. To be noted: 2 nM, 15 minutes at 30° C., nuclear extracts of 1 nM Shh treated P19 cells. The procedure: P19 cells were treated with or without 1 nM Shh for 36 hours and nuclear extracts from these cells were obtained as described earlier. A protein phosphatase assay system™ (Life Technologies, Bethesda) was used to quantitate the phosphatase activity present in the control and induced extracts. P19 cells were treated with or without 1 nM Shh for 36 hours and nuclear extracts from these cells were obtained and incubated with 2 nM OA or 4 nM Inh-2 protein for 15 minutes at 30° C. Results are expressed as mean±sd from three separate experiments.

The subject of test [4] is Islet-1 and neurofilament (NFL). Kind of test: Mouse neural tube explants, whole-mount immunostaining. The format is cell-based. To be noted: 5 nM for 24 hours. On the procedure: Mouse embryos at embryonic day 9-9.5 were dissected in such a way as to remove surface ectoderm and somitic mesoderm and neural tubes were isolated from the level of rhombomere 8 in the rostral region to the first segmenting somite in the caudal region. Neural tubes were cultured for 24 hours, dorsal-side down on Millicell-CM membranes and overlayed with Matrigel™ containing 10 ng/ml NT-3, with L15 air in presence or absence of 5nM OA. The explants were subjected to whole-mount immunostaining using a monoclonal antibody raised against mouse Islet-1 (39.4D5) or neurofilament (NFL) was used to analyze any changes in Islet-1 and NFL expression.

For `C=C1[C@@H](O)[C@@H]2O[C@]3(CC[C@H](/C=C/[C@@H](C)[C@@H]4CC(C)=C[C@@]5(O[C@H](C[C@@](C)(O)C(=O)O)CC[C@H]5O)O4)O3)CC[C@H]2O[C@@H]1[C@@H](O)C[C@H](C)[C@H]1O[C@@]2(CCCCO2)CC[C@H]1C` [OA, okadaic acid], the Ci level result in test [1] (1 nM, absence of HH signaling) is reported as “significantly reduced”. In addition, the “Ci mobility form (phosphorylation)” value in test [1] (1 nM, absence of HH signaling) is reported as “shifted Ci to the low mobility form”. Moreover, the Ci detection result in test [1] (5 to 10 nM) is listed as “completely undetectable”. In addition, in test [1] (presence of HH), the “Ci level and mobility” value is listed as “overcame the induction effect of HH”. For the same compound, the “induction of HNF3β and Isl-1” value is on record as “reduced the induction” in test [2] (1 nM, 2.5 mg/ml of SHH) and “completely blocked the induction” in test [2] (10 nM, 10 mg/ml of SHH). Moreover, in test [2] (1 nM, 10 mg/ml of SHH), the “effect on induction of HNF3β and Isl-1 at higher SHH” value is recorded as “reversed”. For the same compound, the Shh-induced phosphatase activity entry in test [3] is listed as “completely abolished”. The “neurofilament staining within the neural tube” value in test [4] is “no effect”. The “levels of immunodetectable Is11 protein” value in test [4] (9.5 dpc mouse neural tube explants) is “significantly decreased”.
